In patent US20180177792A1, “COMPOSITIONS AND METHODS FOR TREATING PATIENTS WITH RTK MUTANT CELLS” (IGNYTA, INC., priority 2015, published 2018):
Like-named read-outs stand apart in the source and are kept apart here.

Key:
BaF3-tel/trkB cells = molecular target: T1, BaF3-tel/trkB cells (Homo sapiens, UniProt Q16620); assay: growth inhibition, Ba/F3-tel/trkB cells; assay type: cell-based, murine; details: read-out: IC50, Table 9
T1 construct: fused on or other part: P41212 (Transcription factor ETV6)

BaF3-tel/trkC cells = molecular target: T2, BaF3-tel/trkC cells (Homo sapiens, UniProt Q16288); assay: growth inhibition, Ba/F3-tel/trkC cells; assay type: cell-based, murine
T2 construct: fused on or other part: P41212 (Transcription factor ETV6)

[1] = test system: KM12-TPM3/trkA_G667C cells; assay: growth inhibition screen, KM12 mutant cells with G667C; assay type: cell-based, human
Method: (§1) Each treatment condition was performed in duplicate.
(§2) In this experiment, each of the following cell lines: Ba/F3-tel/trkA, Ba/F3-tel/trkA-10nMA (G595R), KM12-DMSO, KM12-30nM101-B (G667C), KM12-100nM101-B (G667C), KM12-300nM101-B (G595R) was screened against a number of chemical compounds.

[2] = test system: KM12-TPM3/trkA_G595R cells; assay: growth inhibition screen, KM12 mutant cells with G595R; assay type: cell-based, human
Method: as §1, §2

BaF3-tel/trkA_WT cells = molecular target: T3, BaF3-tel/trkA_WT cells (Homo sapiens, UniProt P04629); assay: growth inhibition, parental Ba/F3-tel/trkA cells; assay type: cell-based, murine
T3 construct: Input Ba/F3-Tel/TrkA cell line was an engineered cell line harboring a recombinant TrkA fusion gene ETV6-TrkA; fused on or other part: P41212 (Transcription factor ETV6)
Method: (§3) Input Ba/F3-Tel/TrkA cell line was an engineered cell line harboring a recombinant TrkA fusion gene ETV6-TrkA. […] Cell viability was evaluated by trypan blue and counted every two days (FIG. 9).
as §1, §2

[3] = molecular target: T4, BaF3-tel/trkA-10 nMA(G595R) cells (Homo sapiens, UniProt P04629, G595R, cells depend on it); assay type: cell-based, murine; details: BaF3-tel/trkA_G595R
T4 construct: IC50; other: BaF3-tel/trkA-10 nMA(G595R); fused on or other part: P41212 (Transcription factor ETV6)
Method: as §3, §1, §2

[4] = test system: mutant cells harboring the TrkA-G595C mutation or the TrkA-G667C mutation; assay: screen for inhibition of proliferation of mutant KM12 and Ba/F3-tel/trkA cells; assay type: cell-based
Method: as §1, §2

[5] = test system: parental KM12 cells (KM12-DMSO; KM12-TPM3/trkA_WT); assay: growth inhibition (CellTiter-Glo, 3 days), parental KM12 cells cultured in DMSO
KM12-1 nM A cells = assay: cells; details: Homo sapiens
Method: as §1

KM12-10 nM A cells = assay: cells; details: Homo sapiens
Method: as §1

KM12-100 nM A cells = assay: cells; details: Homo sapiens
Method: as §1

[6] = test system: KM12-100 nM-B (no drug) cells; assay: cells; details: Homo sapiens
Method: as §1

KM12-100 nM-B cells = assay: cells; details: Homo sapiens
Method: as §1

KM12-3 nM A cells = assay: cells; details: Homo sapiens
Method: as §1

KM12-30 nM A cells = assay: cells; details: for IC50: Homo sapiens
Method: as §1

KM12-30 nM-B cells = assay: cells; details: Homo sapiens
Method: as §1

KM12-300 nM-B cells = assay: cells; details: Homo sapiens
Method: as §1

[7] = test system: BaF3-tel/trkA-10 nMA(G595R) cells; assay type: cell-based, murine
Method: as §3, §1, §2

[8] = Table 8, cells without unit, read-out: IC50 (the source's name)
[9] = Table 9, read-out: IC50 (the source's name)
[10] = Homo sapiens, KM12-TPM3/trkA_G667C, Table 8, in μM, read-out: IC50
[11] = Homo sapiens, KM12-TPM3/trkA_G595R, Table 8, in μM, read-out: IC50
[12] = Table 8, in μM, read-out: IC50 (the source's name)

T2 sequence (Q16288 whole entry, change not shown, the tested form may be a part): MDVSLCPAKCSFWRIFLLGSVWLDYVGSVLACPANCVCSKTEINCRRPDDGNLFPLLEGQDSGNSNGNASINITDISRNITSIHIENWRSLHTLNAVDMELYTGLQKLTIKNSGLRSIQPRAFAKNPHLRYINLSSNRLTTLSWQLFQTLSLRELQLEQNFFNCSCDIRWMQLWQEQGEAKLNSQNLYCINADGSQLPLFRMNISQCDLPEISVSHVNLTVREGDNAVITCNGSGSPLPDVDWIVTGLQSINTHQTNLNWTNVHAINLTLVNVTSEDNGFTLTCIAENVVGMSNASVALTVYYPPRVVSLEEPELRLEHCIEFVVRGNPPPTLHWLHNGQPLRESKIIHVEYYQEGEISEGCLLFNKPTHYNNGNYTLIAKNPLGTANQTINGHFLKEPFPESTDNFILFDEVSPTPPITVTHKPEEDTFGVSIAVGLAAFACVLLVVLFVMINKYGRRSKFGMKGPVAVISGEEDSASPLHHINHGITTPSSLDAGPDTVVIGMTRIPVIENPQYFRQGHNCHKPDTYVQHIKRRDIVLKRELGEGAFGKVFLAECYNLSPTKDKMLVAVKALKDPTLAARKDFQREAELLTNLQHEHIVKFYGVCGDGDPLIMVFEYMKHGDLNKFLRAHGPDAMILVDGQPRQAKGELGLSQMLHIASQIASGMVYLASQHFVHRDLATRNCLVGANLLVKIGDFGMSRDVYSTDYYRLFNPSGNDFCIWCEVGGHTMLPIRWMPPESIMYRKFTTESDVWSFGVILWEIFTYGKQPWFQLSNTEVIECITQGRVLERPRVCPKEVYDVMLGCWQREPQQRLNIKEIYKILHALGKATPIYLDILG
T1 sequence (Q16620 whole entry, change not shown, the tested form may be a part): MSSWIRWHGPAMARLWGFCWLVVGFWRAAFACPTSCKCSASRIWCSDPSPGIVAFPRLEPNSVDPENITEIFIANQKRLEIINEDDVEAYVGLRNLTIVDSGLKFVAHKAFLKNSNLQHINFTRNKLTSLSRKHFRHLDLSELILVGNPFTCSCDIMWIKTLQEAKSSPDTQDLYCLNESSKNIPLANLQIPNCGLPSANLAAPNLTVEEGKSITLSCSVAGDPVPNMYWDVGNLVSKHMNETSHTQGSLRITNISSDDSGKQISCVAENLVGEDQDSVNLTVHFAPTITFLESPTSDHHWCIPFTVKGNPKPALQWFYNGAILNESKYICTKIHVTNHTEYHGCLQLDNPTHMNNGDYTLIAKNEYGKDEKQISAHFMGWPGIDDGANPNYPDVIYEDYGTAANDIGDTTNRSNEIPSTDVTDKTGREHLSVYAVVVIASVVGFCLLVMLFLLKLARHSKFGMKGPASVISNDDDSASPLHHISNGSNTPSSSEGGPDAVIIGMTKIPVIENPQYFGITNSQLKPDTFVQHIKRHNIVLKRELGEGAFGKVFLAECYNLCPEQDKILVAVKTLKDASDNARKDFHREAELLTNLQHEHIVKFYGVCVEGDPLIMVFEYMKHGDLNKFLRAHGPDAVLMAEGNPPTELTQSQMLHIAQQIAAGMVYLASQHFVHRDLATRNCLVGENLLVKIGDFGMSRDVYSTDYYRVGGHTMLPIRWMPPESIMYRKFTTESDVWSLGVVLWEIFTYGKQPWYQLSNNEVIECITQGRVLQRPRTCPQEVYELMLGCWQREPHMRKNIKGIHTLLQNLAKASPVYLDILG
T3 sequence (P04629 whole entry, change not shown, the tested form may be a part): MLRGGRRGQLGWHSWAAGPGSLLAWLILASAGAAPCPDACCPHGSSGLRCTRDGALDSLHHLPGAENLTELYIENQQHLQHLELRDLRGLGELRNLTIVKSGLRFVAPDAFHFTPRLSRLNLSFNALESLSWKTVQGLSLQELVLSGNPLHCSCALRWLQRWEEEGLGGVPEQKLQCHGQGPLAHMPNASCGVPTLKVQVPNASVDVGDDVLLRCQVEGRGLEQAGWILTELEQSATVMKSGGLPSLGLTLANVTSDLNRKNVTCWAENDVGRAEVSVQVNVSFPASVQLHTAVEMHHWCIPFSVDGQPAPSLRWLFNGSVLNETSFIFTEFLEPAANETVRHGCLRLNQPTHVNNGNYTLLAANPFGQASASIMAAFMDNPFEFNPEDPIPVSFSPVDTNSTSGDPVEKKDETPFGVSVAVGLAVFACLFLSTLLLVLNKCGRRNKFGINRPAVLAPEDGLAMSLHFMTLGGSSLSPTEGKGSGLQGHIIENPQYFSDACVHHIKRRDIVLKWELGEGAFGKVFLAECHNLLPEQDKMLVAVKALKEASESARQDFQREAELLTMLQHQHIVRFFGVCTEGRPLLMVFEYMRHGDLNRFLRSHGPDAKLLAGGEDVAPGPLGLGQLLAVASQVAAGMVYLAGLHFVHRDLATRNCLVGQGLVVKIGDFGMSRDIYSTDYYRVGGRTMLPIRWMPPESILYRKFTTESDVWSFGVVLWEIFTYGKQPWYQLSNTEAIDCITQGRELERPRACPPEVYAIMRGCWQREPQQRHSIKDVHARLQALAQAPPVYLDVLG
T4 sequence (P04629 whole entry G595R, the tested form may be a part): as the sequence (P04629 whole entry, change not shown, the tested form may be a part) above, with G595R counted along it

With `CC(C)Oc1cc(Nc2nc(N[C@@H](C)c3ccc(F)cn3)ncc2Cl)n[nH]1` [AZ-23, 5-chloro-2-N-[(1S)-1-(5-fluoropyridin-2-yl)ethyl]-4-N-(3-propan-2-yloxy-1H-pyrazol-5-yl)pyrimidine-2,4-diamine] the GI50 (BaF3-tel/trkB cells) was 3.3 nM and the GI50 (BaF3-tel/trkC cells; read-out: IC50, Table 9) was 2.2 nM.
Molecule `COC[C@@H](C)Nc1cc(N2CCN(C)CC2)ccc1C(=O)Nc1n[nH]c2ccc(S(=O)(=O)c3cc(F)cc(F)c3)cc12` [Compound 2, N-[5-(3,5-difluoro-benzenesulfonyl)-1H-indazol-3-yl]-2-((R)-2-methoxy-1-methyl-ethylamino)-4-(4-methyl-piperazin-1-yl) benzamide] has an IC50 ([1]; KM12-TPM3/trkA_G667C, Table 8, cells without unit, read-out: IC50) of 0.466 µM, an IC50 ([2]; KM12-TPM3/trkA_G595R, Table 8, cells without unit, read-out: IC50) of 0.424 µM and a GI50 (BaF3-tel/trkA_WT cells; [8]) of 0.0023 µM. For the same molecule, the GI50 [3, 8] was 0.846 µM, the “inhibitory activity against mutant cells” value [4] was “significant inhibitory activity” and the IC50 ([5]; KM12-TPM3/trkA_WT, Table 8, cells without unit) was 6.1 nM.
`COC(=O)[C@@]1(O)C[C@H]2O[C@]1(C)n1c3ccccc3c3c4c(c5c6ccccc6n2c5c31)C(=O)NC4` [Compound K252a, 9,12-Epoxy-1H-diindolo[1,2,3-fg:3′,2′,1′-kl]pyrrolo[3,4-i][1,6]benzodiazocine-10-carboxylic acid, 2,3,9,10,11,12-hexahydro-10-hydroxy-9-methyl-1-oxo-, methyl ester, (9S,10R,12R)-] showed a GI50 (BaF3-tel/trkB cells) of 45.3 nM and a GI50 (BaF3-tel/trkC cells; [9]) of 14.3 nM.
With `O=C(Nc1cnn2ccc(N3CCC[C@@H]3c3cc(F)ccc3F)nc12)N1CC[C@H](O)C1` [LOXO-101, (3S)-N-[5-[(2R)-2-(2,5-difluorophenyl)-1-pyrrolidinyl]pyrazolo[1,5-a]pyrimidin-3-yl]-3-hydroxy-1-pyrrolidinecarboxamide] the IC50 [1, 10] was greater than 1 µM, the IC50 [2, 11] was greater than 1 µM and the IC50 ([5]; Homo sapiens, KM12) was 27 nM.
`COc1cc(N2CCC(N3CCN(C)CC3)CC2)ccc1Nc1ncc(Cl)c(Nc2ccccc2S(=O)(=O)C(C)C)n1` [NVP-TAE684, 5-chloro-N2-[2-methoxy-4-[4-(4-methyl-1-piperazinyl)-1-piperidinyl]phenyl]-N4-[2-[(1-methylethyl)sulfonyl]phenyl]-2,4-Pyrimidinediamine] was tested, and the “inhibitory activity against mutant cells” value [4] was “significant inhibitory activity”.
Molecule `C[C@H]1Oc2cc(cnc2N)-c2c(nn(C)c2C#N)CN(C)C(=O)c2ccc(F)cc21` [PF06463922, (10R)-7-amino-12-fluoro-10,15,16,17-tetrahydro-2,10,16-trimethyl-15-oxo-2H-4,8-Methenopyrazolo[4,3-h][2,5,11]benzoxadiazacyclotetradecine-3-carbonitrile] has an IC50 ([1]; Homo sapiens, KM12) greater than 1 µM, an IC50 ([2]; Homo sapiens, KM12) greater than 1 µM and a GI50 (BaF3-tel/trkA_WT cells; read-out: IC50, Table 8, cells without unit) of 0.386 µM. The GI50 ([3]; read-out: IC50, Table 8, in μM) was greater than 1 µM and the IC50 ([5]; Homo sapiens, KM12) was 206 nM.
`CN[C@@H]1C[C@H]2O[C@@](C)([C@@H]1OC)n1c3ccccc3c3c4c(c5c6ccccc6n2c5c31)C(=O)NC4` [Staurosporine, 9,13-Epoxy-1H,9H-diindolo[1,2,3-gh:3′,2′,1′-lm]pyrrolo[3,4-j][1,7]benzodiazonin-1-one, 2,3,10,11,12,13-hexahydro-10-methoxy-9-methyl-11-(methylamino)-, (9S,10R,11R,13R)-] gave a GI50 (BaF3-tel/trkB cells) of 4.2 nM.
Work on `Cc1cc(Nc2ncc(Cl)c(Nc3ccccc3S(=O)(=O)C(C)C)n2)c(OC(C)C)cc1C1CCNCC1` [ceritinib, 5-chloro-2-N-(5-methyl-4-piperidin-4-yl-2-propan-2-yloxyphenyl)-4-N-(2-propan-2-ylsulfonylphenyl)pyrimidine-2,4-diamine] yielded an IC50 [1, 10] greater than 1 µM, an IC50 [2, 11] greater than 1 µM and a GI50 (BaF3-tel/trkA_WT cells; [12]) greater than 1 µM. For the same molecule, the GI50 [3, 12] was greater than 1 µM and the IC50 ([5]; Homo sapiens, KM12) was 269 nM.
`C[C@@H](Oc1cc(-c2cnn(C3CCNCC3)c2)cnc1N)c1c(Cl)ccc(F)c1Cl` [crizotinib, (R)-3-[1-(2,6-Dichloro-3-fluorophenyl)ethoxy]-5-[1-(piperidin-4-yl)-1H-pyrazol-4-yl]pyridin-2-amine] showed an IC50 [1, 10] greater than 1 µM, an IC50 [2, 11] greater than 1 µM and a GI50 (BaF3-tel/trkA_WT cells; [8]) of 0.179 µM. For the same molecule, the GI50 [3, 8] was 0.433 µM and the IC50 ([5]; Homo sapiens, KM12) was 76.6 nM.
For `CN1CCN(c2ccc(C(=O)Nc3n[nH]c4ccc(Cc5cc(F)cc(F)c5)cc34)c(NC3CCOCC3)c2)CC1` [entrectinib, N-[5-(3,5-difluorobenzyl)-1H-indazol-3-yl]-4-(4-methyl-piperazin-1-yl)-2-(tetrahydro-pyran-4-ylamino)-benzamide], the IC50 (KM12-1 nM A cells; KM12) was 4.19 nM, the IC50 (KM12-1 nM A cells; KM12, 72 h) was 1.57 nM and the IC50 (KM12-10 nM A cells; KM12) was 4.65 nM. The IC50 (KM12-10 nM A cells; KM12, 72 h) was 1.71 nM, the IC50 (KM12-100 nM A cells) was 6.62 nM and the IC50 [6] was 85.4 nM. The IC50 (KM12-100 nM-B cells) was 70.4 nM, the IC50 (KM12-3 nM A cells; KM12) was 4.36 nM and the IC50 (KM12-3 nM A cells; KM12, 72 h) was 1.64 nM. For the same molecule, the IC50 (KM12-30 nM A cells; KM12) was 6.47 nM, the IC50 (KM12-30 nM A cells; KM12, 72 h) was 3.41 nM and the “increase of IC50 value” (KM12-30 nM A cells; KM12-30 nM-A treated cells versus cells cultured in DMSO and 1-10 nM entrectinib) was roughly 2 fold. For the same molecule, the IC50 (KM12-30 nM-B cells) was 93.8 nM, the IC50 (KM12-300 nM-B cells) was 209 nM and the IC50 ([1]; Homo sapiens, KM12) was 0.367 µM. The “IC50 higher than that of the control parental line” value [7] was greater than 100 fold, the GI50 (BaF3-tel/trkB cells) was 8.7 nM and the GI50 (BaF3-tel/trkC cells; [9]) was 5.5 nM. For the same molecule, the “inhibitory activity against mutant cells” value [4] was “significant inhibitory activity”, the IC50 ([5]; Homo sapiens, KM12, 72 h, KM12-DMSO-A, 3-day growth inhibition, Table 3) was 1.26 nM and the IC50 ([5]; Homo sapiens, KM12, 672 h, KM12-DMSO, Table 4, after about 4 weeks of increased entrectinib in Set A) was 3.95 nM. The IC50 ([5]; Homo sapiens, KM12, KM12-DMSO-B, Table 5) was 1.14 nM and the IC50 ([5]; Homo sapiens, KM12, KM12-TPM3/trkA_WT, Table 8, cells without unit) was 3.4 nM.
In the case of `CNC(=O)c1cc(Oc2ccc(NC(=O)Nc3cc(C(C)(C)C)nn3-c3ccc4ncccc4c3)c(F)c2)ccn1` [rebastinib, 4-[4-[(5-tert-butyl-2-quinolin-6-ylpyrazol-3-yl)carbamoylamino]-3-fluorophenoxy]-N-methylpyridine-2-carboxamide], the “inhibitory activity against mutant cells” value [4] is reported as “significant inhibitory activity”.
